From US6613883B1, “Screening assays for compounds that cause apoptosis and related compounds” (The United States of America as represented by the …, priority 1994, dated 2003)
“Also recorded” adds a separate entry of the source.

Experiments:
binding of p53 to XPB = molecular target: T1, binding of p53 to XPB (Homo sapiens, UniProt P04637); experiment: Competitive inhibition by peptides of XPB binding to GST-p53-WT; conditions: peptide preincubated with GST-p53-WT 30 min on ice, 12-596 nM
T1 construct: was used for in vitro translation of full length XPB protein; made in house; host or cells: GST-p53-WT: Escherichia coli; XPB: cell-free in vitro transcription/translation (Promega)
Experimental: FIG. 4. Peptides corresponding to helicase motif III of XPB and the C-terminus of p53 prevent XPB from binding to GST-p53. Four different synthetic peptides were preincubated with 2 μg GST-p53WT for 30 minutes on ice before the addition of ^35S-labeled, in vitro-translated XPB for 60 min at RT. Peptide #464 corresponds to residues 464-478 of XPB (lanes 2-4; 12, 120, and 596 nM), peptide #479 corresponds to residues 479-493 of XPB (lanes 5-7; 12, 116, and 578 nM), peptide #99 corresponds to residues 100-115 of HBX (lanes 8-9; 111 and 554 nM), and peptide #p53cp corresponds to residues 367-387 of p53 (lanes 11-12; 85 and 424 nM).
(§1) The helicase motif III in XPB and the C-terminal region of p53 are both important regions that are involved in the binding of p53 to XPB. […] Incubation conditions for the binding assays and analysis of binding was then carried out as described in Example 2 herein.

[1] = test system: normal primary human fibroblasts (C5RO); experiment: Apoptosis after microinjection of p53 expression vectors; type: cell-based; conditions: for effect of coinjected mutant p53 on induction of apoptosis by wt p53: expression vectors for wt and mutant p53 coinjected into normal human fibroblasts; for % apoptotic cells: normal fibroblasts (C5RO), of p53 positive cells; for % apoptotic cells / p53 localization (% cells) both / p53 localization (% cells) cytoplasmic / p53 localization (% cells) nuclei: 24 hr after microinjection; for p53 localization (% cells) both / p53 localization (% cells) cytoplasmic / p53 localization (% cells) nuclei: normal fibroblasts
[2] = molecular target: T2, XPD helicase within BTF2-TFIIH (Homo sapiens, UniProt P18074); experiment: BTF2-TFIIH helicase assay, 5'→3' (XPD); type: biochemical; conditions: 6, 18, 120 ng wild-type p53 or 7, 21, 140 ng p53-273H
T2 construct: XPD and XPB helicase activity within the native BTF2-TFIIH complex; endogenous in cells; host or cells: HeLa cell nuclear extract (HAP fraction)

[3] = molecular target: T3, XPB helicase within BTF2-TFIIH (Homo sapiens, UniProt P19447); experiment: BTF2-TFIIH helicase assay, 3'→5' (XPB); type: biochemical; conditions: 6, 18, 120 ng wild-type p53 or 7, 21, 140 ng p53-273H
T3 construct: XPD and XPB helicase activity within the native BTF2-TFIIH complex; endogenous in cells; host or cells: HeLa cell nuclear extract (HAP fraction)

[4] = test system: XPB binding to mutant p53; experiment: Peptide inhibition of XPB binding to mutant p53; design: species or system human; conditions: data not shown
Experimental: as §1

wild type p53 = molecular target: T4, wild type p53 (Homo sapiens, UniProt P04637); experiment: Binding of XPB proteins with deletion mutations to wild type p53; conditions: for binding of in vitro-translated XPB deletion mutant to GST-p53-WT: compared with wild-type XPB
T4 construct: made in house; host or cells: Escherichia coli
Experimental: FIGS. 3A, 3B and 3C. p53 binds to XPB helicase motifs Ia, II and III. […] Twenty percent of the original input was loaded in parallel as the references (lanes 1-3). B. In vitro-translated wild-type p53 protein was mixed with GSH-beads loaded with 4 μg of GST (lane 2), 2 μg of GST-XPB (WT) (lane 3), or 2 μg of GST-XPB (truncated XPB with 80-480 residues) (lane 4). Bound proteins were analyzed on SDS/PAGE. The original input (100%) was included as a reference (lane 1). C. Schematic representation of the full-length or the truncated XPB proteins used in binding assays. Black boxes in the bars are the putative helicase motifs conserved across the helicase superfamily. The small open bar from residues 354 to 496 covers the region which binds p53, with the closed bar in the right side covering motif III representing the higher affinity binding site. Helicase motif 1, residues 337-351; motif Ia, residues 361-374; motif II, residues 434-446; motif III, residues 462-480; motif IV, residues 576-592; motif V, residues 601-621; motif VI, residues 630-649.
The binding assays were done in 500 μl IP buffer (50 mM Tris-HCl, pH8.0/120 mM NaCl/0.5% Nonidet P-40) containing the ^35S-labeled, in vitro translated proteins and GST fusion proteins loaded on GSH-beads at RT for 60 min. After washing five times with IP buffer, the bound proteins were released by boiling the beads in Laemmli buffer for 5 min, separated by SDS-PAGE, and visualized by fluolorography, as described in Wang, X. W., et al. (1994) Proc. Natl. Acad. Sci., USA 91:2230-2234.
XPB contains 7 putative helicase motifs (FIG. 3C, black bars) which are conserved among the helicase superfamily and are indispensable for NER activity. […] The XPB mutants were produced a s described in Example 1, herein, and the binding studies with wild type p53 were carried out as described in Example 2, herein.

Question: “99: non relevant peptide from HBV, residues 100-115 of HBX [compound 99, reference compound]” was tested. Which “competition of in vitro-translated XPB from GST-p53” value (“competition” for short) (binding of p53 to XPB) did it give?
Answer: failed to do so; also recorded: enhance binding

Question: “249^Ser: p53 mutant 249Ser, microinjected as CMV expression vector” was tested. Which “effect of coinjected mutant p53 on induction of apoptosis by wt p53” value [1] did it give?
Answer: completely abolished

Question: And the “% apoptotic cells” value [1]?
Answer: 0(34) %

Question: What about the “p53 localization (% cells) both” value [1] of the same molecule?
Answer: 17 % cells

Question: And the “p53 localization (% cells) cytoplasmic” value [1]?
Answer: 77 % cells

Question: What about the “p53 localization (% cells) nuclei” value [1] of the same molecule?
Answer: 6 % cells

Question: “273^His: p53 mutated at codon 273 (Arg→His); expression vector or baculovirus-produced protein” was tested. Which “inhibition of XPD helicase activity of BTF2-TFIIH” value [2] did it give?
Answer: No inhibition

Question: And the “effect of coinjected mutant p53 on induction of apoptosis by wt p53” value [1]?
Answer: completely abolished

Question: What about the “% apoptotic cells” value [1] of the same molecule?
Answer: 7(30) %

Question: And the “% apoptotic cells” value ([1]; listed as 273]^His)?
Answer: significantly reduced

Question: What about the “p53 localization (% cells) both” value [1] of the same molecule?
Answer: 73 % cells

Question: What about the “p53 localization (% cells) cytoplasmic” value [1] of the same molecule?
Answer: 0 % cells

Question: What about the “p53 localization (% cells) nuclei” value [1] of the same molecule?
Answer: 27 % cells

Question: And the “inhibition of XPB helicase activity of BTF2-TFIIH” value [3]?
Answer: No inhibition

Question: “361 to 393: fragment of the c-terminus of wt p53, amino acid residues 361 to 393” was tested. Which “induction of apoptosis by fragments of the c-terminus of wt p53” value ([1]; cells and delivery not stated for the fragments) did it give?
Answer: can also induce apoptosis

Question: For “479: residues 479 to 493 of XPB (DLNFLIGPKLYEANW) [compound 479, reference compound]”, which “competition” value (binding of p53 to XPB) is on record?
Answer: failed to do so; also recorded: enhance binding

Question: For “Peptide #464: amino acid residues 464 to 478 of XPB, helicase motif III region (LGLTATLVREDDKIV)”, which “inhibition of XPB binding to mutant p53” value [4] is on record?
Answer: did not inhibit

Question: And the “competition” value (binding of p53 to XPB; listed as #464)?
Answer: efficiently competed; also recorded: capable of inhibiting the binding

Question: How did the “competition” value (binding of p53 to XPB) turn out when “Peptide #p53cp: amino acid residues 367-387 of human wild type p53 (SHLKSKKGQSTSRHKKLMFKT)” was run?
Answer: competed; also recorded: capable of inhibiting the binding

B1: GST-XPB-80/480: GST fused to amino acids 80 to 480 of XPB (protein, UniProt P19447 80-480, looked up, fragment)
chain: PDGHIFLEAFSPVYKYAQDFLVAIAEPVCRPTHVHEYKLTAYSLYAAVSVGLQTSDITEYLRKLSKTGVPDGIMQFIKLCTVSYGKVKLVLKHNRYFVESCHPDVIQHLLQDPVIRECRLRNSEGEATELITETFTSKSAISKTAESSGGPSTSRVTDPQGKSDIPMDLFDFYEQMDKDEEEEEETQTVSFEVKQEMIEELQKRCIHLEYPLLAEYDFRNDSVNPDINIDLKPTAVLRPYQEKSLRKMFGNGRARSGVIVLPCGAGKSLVGVTAACTVRKRCLVLGNSAVSVEQWKAQFKMWSTIDDSQICRFTSDAKDKPIGCSVAISTYSMLGHTTKRSWEAERVMEWLKTQEWGLMILDEVHTIPAKMFRRVLTIVQAHCKLGLTATLVREDDKIVDL
modifications: GST fusion
notes: GST fused to amino acids 80 to 480 of XPB
Question: For B1, which “binding of in vitro-translated human wild-type p53 to GST-XPB protein” value (wild type p53; GSH-beads loaded with GST-XPB protein) is on record?
Answer: significantly less binding

B2: ΔC496: XPB deletion mutant terminating at residue 496 (helicase motifs IV, V and VI deleted) (protein)
chain: MGKRDRADRDKKKSRKRHYEDEEDDEEDAPGNDPQEAVPSAAGKQVDESGTKVDEYGAKDYRLQMPLKDDHTSRPLWVAPDGHIFLEAFSPVYKYAQDFLVAIAEPVCRPTHVHEYKLTAYSLYAAVSVGLQTSDITEYLRKLSKTGVPDGIMQFIKLCTVSYGKVKLVLKHNRYFVESCHPDVIQHLLQDPVIRECRLRNSEGEATELITETFTSKSAISKTAESSGGPSTSRVTDPQGKSDIPMDLFDFYEQMDKDEEEEEETQTVSFEVKQEMIEELQKRCIHLEYPLLAEYDFRNDSVNPDINIDLKPTAVLRPYQEKSLRKMFGNGRARSGVIVLPCGAGKSLVGVTAACTVRKRCLVLGNSAVSVEQWKAQFKMWSTIDDSQICRFTSDAKDKPIGCSVAISTYSMLGHTTKRSWEAERVMEWLKTQEWGLMILDEVHTIPAKMFRRVLTIVQAHCKLGLTATLVREDDKIVDLNFLIGPKLYEANWMEL
Question: B2 was tested. Which “binding of in vitro-translated XPB deletion mutant to GST-p53-WT” value (wild type p53) did it give?
Answer: did not alter the binding

B3: ΔC354: XPB deletion mutant terminating at residue 354 (helicase motifs Ia to VI deleted) (protein)
chain: MGKRDRADRDKKKSRKRHYEDEEDDEEDAPGNDPQEAVPSAAGKQVDESGTKVDEYGAKDYRLQMPLKDDHTSRPLWVAPDGHIFLEAFSPVYKYAQDFLVAIAEPVCRPTHVHEYKLTAYSLYAAVSVGLQTSDITEYLRKLSKTGVPDGIMQFIKLCTVSYGKVKLVLKHNRYFVESCHPDVIQHLLQDPVIRECRLRNSEGEATELITETFTSKSAISKTAESSGGPSTSRVTDPQGKSDIPMDLFDFYEQMDKDEEEEEETQTVSFEVKQEMIEELQKRCIHLEYPLLAEYDFRNDSVNPDINIDLKPTAVLRPYQEKSLRKMFGNGRARSGVIVLPCGAGKSLVGVTAA
Question: For B3, which “binding of in vitro-translated XPB deletion mutant to GST-p53-WT” value (wild type p53) is on record?
Answer: completely abolished the binding
